Measured values published in patent US5192799A, “Coumaran group containing amine compounds and their acid addition salts and quaternary ammonium salts and the use thereof as anti arrhythmic agents and as psychotropic agents” (Mitsui Petrochemical Industries, Ltd., priority 1987, dated 1993).

Columns and labels:
Purkinje fiber = assay: Effect on APD (APD75, field-stimulated right ventricular free wall); type: cell-based, adult mongrel dog; conditions: 20 minutes incubation, 37° C., 1 Hz, control before drug = 100%; for activation at 1 µg/mL / activation at 3 µg/mL / activation at 10 µg/mL: Canis lupus familiaris, purkinje, 20 min, read-out: APD75 % (percent change in APD75)
Method: The pharmacological effects of the compounds of this invention represented by general formula (1) were studied. By using the heart of an adult mongrel dog, the activity of the compounds of general formula (1) were tested in vitro and in vivo. The heart of an anaethetized dog was extracted and suspended in a chamber at 37° C. in Tyrode's solution. The drug was added to Tyrode's solution being perfused through the heart specimen, and electrophysiological effects of the drug on cardiac action potential duration (APD) and maximum rate of depolarization were studied. An anaethetized dog was cut open at the chest.
An adult mongrel dog was anaethetized with intravenous administration of pentobarbital, 30 mg/kg. The heart was quickly removed, and the right ventricular free wall was dissected in the Tyrode's solution. The right ventricular free wall was fixed within an incubator at 37° C., and field stimulation at 1 Hz was carried out. Intracellular potentials were measured by piercing glass microelectrodes (10-20 megaohms) into the Purkinje fiber and the wave form of cardiac action potential drawn on an oscilloBraun tube via an amplifier was analyzed by a computer. Value of APD was obtained at 75% of full repolarization (APD75). The drug was added to Tyrode's solution (20 ml) perfused through the specimen. The effect of the drug was expressed by a percent change in APD75 after incubation for 20 minutes with the control value of APD before application of the drug being taken as 100%.

[1] = tested on: right ventricle (effective refractory period); assay: Activity on ERP of the right ventricle; type: in vivo, adult mongrel dog; conditions: Canis lupus familiaris, iv, ERP before drug = 100%, read-out: ERP % (ERP prolonging activity); for change in vivo at 0.1 mg/kg: 0.1 mg/kg i.v.; for change in vivo at 0.3 mg/kg: 0.3 mg/kg i.v.; for change in vivo at 1 mg/kg: 1 mg/kg i.v.; for change in vivo at 3 mg/kg: 3 mg/kg i.v.
Method: The pharmacological effects of the compounds of this invention represented by general formula (1) were studied. By using the heart of an adult mongrel dog, the activity of the compounds of general formula (1) were tested in vitro and in vivo. The heart of an anaethetized dog was extracted and suspended in a chamber at 37° C. in Tyrode's solution. The drug was added to Tyrode's solution being perfused through the heart specimen, and electrophysiological effects of the drug on cardiac action potential duration (APD) and maximum rate of depolarization were studied. An anaethetized dog was cut open at the chest. […] In an anaethetized and open-chested adult mongrel dug, a silver-silver chloride electrode was sutured to the right ventricle, and ventricular pacing was performed at a stimulation interval of 400 msec for a duration time of 4 msec, twice diastolic threshold. Then, a small amount of alcohol was injected through the sinus artery to extinguish the pacemaker activity, and under ventricular pacing, ERP was measured. Ten stimulations were taken as one train, and the interval between trains when the response to the first stimulation disappeared was defined as ERP. […] ERP before drug administration (intravenously or intraduodenally) was taken as 100%, and ERP prolonging activity of the drugs was expressed by %.

in vivo = conditions: mouse, in vivo, po, LD50 p.o., p.o., 24 hours after administration, male ddY mice
Method: By using male ddY-strain 5-week old mice (3 to 4 per group), the compounds of general formula (1) were each administered orally or intraperitoneally as a solution in saline or as a suspension in methyl cellulose, and 24 hours after the administration, the toxicity of the compounds was evaluated.

Compound	activation at 1 µg/mL (Purkinje fiber; dose 1 μg/ml) [%]	activation at 3 µg/mL (Purkinje fiber; dose 3 μg/ml) [%]	activation at 10 µg/mL (Purkinje fiber; dose 10 μg/ml) [%]	other results
O=C1COc2cc(OCCCN[C@@H]3C[C@H]4CC[C@@H]3C4)ccc21 (relative stereo) [Compound 168]	0	3	–	–
C[C@H]1C[C@H](C)CN(CCCOc2ccc3c(c2)OCC3=O)C1 (relative stereo) [Compound 1129]	–	7	–	–
CCCCCCC[N+](CC)(CC)CCCCc1ccc(Cl)cc1 [Clofilium, reference compound]	–	–	15	change in vivo at 0.1 mg/kg [1]: 7 ± 1.3%; change in vivo at 0.3 mg/kg [1]: 15.2 ± 2.4%; change in vivo at 1 mg/kg [1]: 22.4 ± 1.6%
CCCCCCCN(CC)CCCOc1ccc2c(c1)OCC2=O [Compound 100]	21	31	–	–
CCCCCCCN(CC)CCCOc1ccc2c(c1)OCC2=O [Compound 104]	–	–	–	APD75 % (percent change in APD75) (Purkinje fiber; dose 1 μg/ml): 21%; APD75 % (percent change in APD75) (Purkinje fiber; dose 3 μg/ml): 30%
CCCCCN(CC)CCCOc1ccc2c(c1)OCC2=O [Compound 108]	0	2	–	–
CCCCN(CCCOc1ccc2c(c1)OCC2=O)CC(C)C [Compound 128]	9	18	–	LD50 at 24 h (in vivo): > 300 mg/kg
C=CCN(CCCOc1ccc2c(c1)OCC2=O)C1CCCCC1 [Compound 160]	0	7	11	LD50 at 24 h (in vivo): > 300 mg/kg
CCN(CCCOc1ccc2c(c1)OCC2=O)C12CC3CC(CC(C3)C1)C2 [Compound 172]	0	8	–	–
CCCN(CCCOc1ccc2c(c1)OCC2=O)CCOC [Compound 180]	5	11	15	–
CCN(CCCCCCO)CCCOc1ccc2c(c1)OCC2=O [Compound 188]	17	19	19	LD50 at 24 h (in vivo): > 300 mg/kg
CCCCN(CCCC)CCOc1ccc2c(c1)OCC2=O [Compound 204]	3	7	8	–
CCCCCN(CC)CCCCOc1ccc2c(c1)OCC2=O [Compound 208]	0	5	9	LD50 at 24 h (in vivo): ~300 mg/kg
CCCCCCCN(CC)CC(O)COc1ccc2c(c1)OCC2=O (stereo not shown) [Compound 214, 6-[3-(N-ethyl-N-heptylamino)-2-hydroxypropyloxy]coumaran-3-one]	15	15	–	–
CSC(=NC#N)N(C)CCCOc1ccc2c(c1)OCC2=O [Compound 271]	–	–	–	LD50 at 24 h (in vivo): > 300 mg/kg
CC(C)NCC(O)COc1ccc2c(c1)OCC2=O (stereo not shown) [Compound 272]	–	8	10	–
COCCN(CCCOc1ccc2c(c1)OCC2=O)CCOC [Compound 276]	5	12	23	change in vivo at 0.1 mg/kg [1]: 0%; change in vivo at 0.3 mg/kg [1]: 0%; change in vivo at 1 mg/kg [1]: 7%; change in vivo at 3 mg/kg [1]: 7%
CCCN(CCCOc1ccc2c(c1)OCC2=O)CCC(=O)OCC [Compound 281]	–	–	–	LD50 at 24 h (in vivo): > 300 mg/kg
CCCCCCC[N+](CC)(CC)CCCOc1ccc2c(c1OC)OCC2=O [Compound 289]	7	8	–	–
CCCCCCC[N+](CC)(CC)CCCOc1cc(OC)c2c(c1)OCC2=O [Compound 290]	–	11	35	–
CCCCCCC[N+](CC)(CC)CC(O)COc1ccc2c(c1)OCC2=O (stereo not shown) [Compound 292]	15	25	28	change in vivo at 0.1 mg/kg [1]: 8%; change in vivo at 0.3 mg/kg [1]: 8%; change in vivo at 1 mg/kg [1]: 8%
CCCC[N+](CCCC)(CCCC)CCCOc1ccc2c(c1)OCC2=O [Compound 293]	0	4	–	–
C=CC[N+](CC)(CCCOc1ccc2c(c1)OCC2=O)C1CCCCC1 (stereo not shown) [Compound 294]	–	11	35	–

Compound	activation at 1 µg/mL (Purkinje fiber; dose 1 μg/ml) [%]	activation at 3 µg/mL (Purkinje fiber; dose 3 μg/ml) [%]	activation at 10 µg/mL (Purkinje fiber; dose 10 μg/ml) [%]	other results
CCCCCCC[N+](CC)(CC)CCCOc1cccc2c1OCC2=O [Compound 295]	–	–	–	LD50 at 24 h (in vivo): > 300 mg/kg
CCCCCCCN(CC)CCCOc1ccc2c(c1)OC(C)(CC)C2C (stereo not shown) [Compound 404]	–	4	–	–
CCCCCCC[N+](CC)(CC)CCCOc1ccc2c(c1)OCC2 [Compound 422]	0	3	–	–
CCCCCCC[N+](CC)(CC)CCCOc1cccc2ccc(=O)oc12 [Compound 632]	–	44	18	LD50 at 24 h (in vivo): > 300 mg/kg
CCCCCCC[N+](CC)(CC)CCCOc1ccc2c(C)c(C)c(=O)oc2c1 [Compound 634]	4	7	11	–
CCCCCCC[N+](CC)(CC)CCCOc1ccc2ccc(=O)oc2c1 [Compound 638]	0	7	–	–
CCCCCCC[N+](CC)(CC)CCCOc1ccc2c(c1)CCC2 [Compound 770]	0	7	–	–
CCCCCCC[N+](CC)(CC)CCCOc1ccc2c(c1)OC(C)(CC)CC2=O (stereo not shown) [Compound 820]	4	5	–	–
CCCCCCCN(CC)CCCOc1ccc2sc(=O)oc2c1 [Compound 952]	0	3	7	–
C=CCc1ccccc1OCC(O)C[N+](C)(C)C(C)C (stereo not shown) [Compound 1020]	10	14	19	–
CCCCCCC[N+](CC)(CC)CCCOc1ccccc1C=CC(C)=O [Compound 1022]	0	11	18	–
O=C1COc2cc(OCCCN3CCCC3)ccc21 [Compound 1102]	–	6	–	–
CC1CCN(CCCOc2ccc3c(c2)OCC3=O)C1 (stereo not shown) [Compound 1106]	–	8	13	–
O=C1COc2cc(OCCCN3CCCCC3)ccc21 [Compound 1108]	0	7	–	APD75 % (percent change in APD75) (Purkinje fiber; dose 10 μg/ml): 9%
CC[N+]1(CCCOc2ccc3c(c2)OCC3=O)CCCC(C)C1 (stereo not shown) [Compound 1119]	–	4	–	–
CCCC1CCCCN1CCCOc1ccc2c(c1)OCC2=O (stereo not shown) [Compound 1134]	7	9	–	–
O=C1COc2cc(OCCCN3CCOCC3)ccc21 [Compound 1166]	4	6	–	–
O=C1COc2cc(OCCCN3CC4CCC(CC4)C3)ccc21 [Compound 1198]	4	6	–	–
O=C1COc2cc(OCCCN3CCCC(CO)C3)ccc21 (stereo not shown) [Compound 1214]	–	4	–	–
CS(=O)(=O)Nc1ccc(C2CCN(CCCOc3ccc4c(c3)OCC4=O)CC2)cc1 [Compound 1304]	–	–	–	LD50 at 24 h (in vivo): > 300 mg/kg
O=C1CCc2cc(OCCC[N+]34CN5CN(CN(C5)C3)C4)ccc21 [Compound 1400]	–	–	–	LD50 at 24 h (in vivo): > 300 mg/kg
O=C1COc2cc(OCCC[n+]3ccc(-c4ccccc4)cc3)ccc21 [Compound 1404]	–	–	–	LD50 at 24 h (in vivo): > 300 mg/kg
CC(C)NCC(O)c1ccc(NS(C)(=O)=O)cc1 (stereo not shown) [Sotalol, reference compound]	–	–	–	change in vivo at 0.1 mg/kg [1]: 1.7 ± 1.7%; change in vivo at 0.3 mg/kg [1]: 6.7 ± 0.9%; change in vivo at 1 mg/kg [1]: 8.7 ± 1.2%; change in vivo at 3 mg/kg [1]: 15.5 ± 0.5%
